These results are taken from patent publication US20160355475A1, “NOVEL INDOLE DERIVATIVE COMPOUND AND PHARMACEUTICAL COMPOSITION COMPRISING THE SAME” (CHONG KUN DANG PHARMACEUTICAL CORP., priority 2014, published 2016).

Structures are written as SMILES. A value given as a limit tells only on which side of the number the result lay.

One data set has as its target T1, HDAC6 human recombinant (Homo sapiens, UniProt Q9UBN7).
T1 construct: purchased Calbiochem 382180
T1 sequence (Q9UBN7 1-1215): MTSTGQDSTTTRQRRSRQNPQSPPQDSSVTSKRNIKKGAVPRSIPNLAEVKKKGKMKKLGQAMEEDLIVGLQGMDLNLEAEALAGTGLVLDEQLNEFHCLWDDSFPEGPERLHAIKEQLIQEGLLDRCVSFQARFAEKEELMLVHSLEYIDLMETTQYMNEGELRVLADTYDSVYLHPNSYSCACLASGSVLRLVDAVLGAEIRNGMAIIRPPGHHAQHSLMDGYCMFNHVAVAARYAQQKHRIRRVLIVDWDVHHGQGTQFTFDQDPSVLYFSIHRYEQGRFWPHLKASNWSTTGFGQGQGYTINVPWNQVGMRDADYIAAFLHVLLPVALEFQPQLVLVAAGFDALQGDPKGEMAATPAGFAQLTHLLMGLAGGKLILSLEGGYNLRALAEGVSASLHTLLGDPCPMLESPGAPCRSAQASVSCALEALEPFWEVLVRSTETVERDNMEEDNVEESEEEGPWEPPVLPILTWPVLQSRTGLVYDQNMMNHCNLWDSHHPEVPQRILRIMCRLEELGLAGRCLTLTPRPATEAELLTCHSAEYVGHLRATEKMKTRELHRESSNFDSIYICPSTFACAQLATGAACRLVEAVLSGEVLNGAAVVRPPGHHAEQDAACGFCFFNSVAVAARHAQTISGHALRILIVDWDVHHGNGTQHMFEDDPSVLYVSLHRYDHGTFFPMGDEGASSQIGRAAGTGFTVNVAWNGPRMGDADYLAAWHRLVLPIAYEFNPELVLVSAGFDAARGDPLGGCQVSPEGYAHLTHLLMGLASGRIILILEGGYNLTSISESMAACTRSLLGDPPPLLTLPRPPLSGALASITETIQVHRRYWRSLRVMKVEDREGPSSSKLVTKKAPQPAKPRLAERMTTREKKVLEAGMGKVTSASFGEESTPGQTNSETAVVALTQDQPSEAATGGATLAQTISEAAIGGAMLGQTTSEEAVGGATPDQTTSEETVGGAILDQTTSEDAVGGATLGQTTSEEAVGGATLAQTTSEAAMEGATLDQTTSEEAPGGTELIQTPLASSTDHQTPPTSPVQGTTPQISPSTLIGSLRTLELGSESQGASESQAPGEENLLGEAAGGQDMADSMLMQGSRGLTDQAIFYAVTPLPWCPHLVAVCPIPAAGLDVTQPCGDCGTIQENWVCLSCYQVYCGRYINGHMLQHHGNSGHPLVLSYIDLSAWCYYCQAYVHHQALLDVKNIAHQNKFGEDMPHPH
Put plainly: HDAC6 enzyme activity inhibition (fluorimetric, in vitro). The following applies: 37° C., 60 minutes; tested at 0.1, 1, 10, 100 and 1000 nM. The class given is biochemical. Put shortly:
(§1)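 Fluorimetric deacetylase assay using an HDAC1 kit and human recombinant HDAC6. Compounds tested at 100–10000 nM (HDAC1) or 0.1–1000 nM (HDAC6), reacted 60 min at 37 °C, then developer 30 min at 37 °C before fluorescence read. Values in μM.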

The target of the next data set is T2, HDAC1 (Homo sapiens, UniProt Q13547).
T2 construct: purchased Enzolifesciences BML-AK511
As to the kind of experiment: HDAC1 enzyme activity inhibition (HDAC1 fluorimetric drug discovery assay kit). The following applies: 37° C., 60 minutes; tested at 100, 1000 and 10000 nM. It counts as biochemical. The essentials: as §1

Data set [1] has as its system tubulin acetylation (HDAC6). As to the kind of experiment: Western blot of tubulin acetylation in RPMI8226 cells. It counts as cell-based. The following applies: 24 hours, FIG. 1. The procedure: (§2) Specifically, RPMI8226 cells were seeded into a six-well plate at a density of 1.0×10^6 cells/well, and then treated with varying concentrations of compound 528. After 24 hours, protein was extracted from the cells using RIPA buffer and quantified by the Bradford method. 25 μg of the protein was added to sample buffer and electrophoresed on 4-12% gradient gel, and the gel was transferred to a nitrocellulose membrane for 50 minutes. The membrane was blocked in 5% skim milk solution for 1 hour. Anti-acetyl H3 antibody (1:2,000), anti-acetyl H4 antibody (1:5,000), anti-acetyl tubulin antibody (1:5,000) and anti-β-actin antibody (1:10,000) were added to 5% skim milk, and the membrane was immersed in the skim milk and allowed to react at 4° C. for 16 hours, after which it was washed three times with 1×TBS-T for 10 minutes each washing. IgG-HRP antibody (1:5,000) was added to the 5% skim milk, and the membrane was immersed in the skim milk and allowed to react at room temperature for 40 minutes, after which it was washed three times with 1×TBS-T for 10 minutes each washing. Detection was performed by LAS 3000 using ECL solution.
A general note: A western blot detects proteins with antibodies after separation by electrophoresis.

The subject of data set [2] is histone acetylation (HDAC1). Put plainly: Western blot of histone H3 and H4 acetylation in RPMI8226 cells. It counts as cell-based. The following applies: 24 hours, FIG. 1. On the procedure: as §2
Data set [3] in a line: Distribution in brain tissue and plasma of ICR mice after oral administration. The class given is in vivo. The following applies: mouse, 50 mg/kg PO, 0.5, 1 and 2 hours, LC-MS/MS, FIG. 2, read-out: concentration in the plasma tissue relative to that in the brain tissue. The procedure:
The distribution of the compound of the present invention in the brain tissue of ICR mice was examined. Specifically, the compound of the present invention was administered orally (PO) to ICR mice at a dose of 50 mg/kg. At 0.5, 1 and 2 hours after administration, blood was collected from the orbital venous plexus of the mice. After the mice were euthanized, the brain tissue (including cerebral, cerebellar and medullar tissues) was extracted.
The blood was centrifuged at 13000 rpm for 4 minutes, and then 30 μL of plasma was collected, and an organic solvent (90 wt % acetonitrile in methanol) was added thereto to remove protein. Then, the solution was centrifuged, and the supernatant was collected.
In addition, saline was added to the isolated brain tissue, and homogenized using a homogenizer. From the homogenized dilution, 100 μL of a sample was taken, and an organic solvent (90 wt % acetonitrile in methanol) was added thereto to remove protein, after which the solution was centrifuged, and the supernatant was collected. The concentrations of the compound of the present invention in the pretreated plasma and brain tissue solutions were analyzed by LC-MS/MS.

T2 sequence (Q13547 whole entry): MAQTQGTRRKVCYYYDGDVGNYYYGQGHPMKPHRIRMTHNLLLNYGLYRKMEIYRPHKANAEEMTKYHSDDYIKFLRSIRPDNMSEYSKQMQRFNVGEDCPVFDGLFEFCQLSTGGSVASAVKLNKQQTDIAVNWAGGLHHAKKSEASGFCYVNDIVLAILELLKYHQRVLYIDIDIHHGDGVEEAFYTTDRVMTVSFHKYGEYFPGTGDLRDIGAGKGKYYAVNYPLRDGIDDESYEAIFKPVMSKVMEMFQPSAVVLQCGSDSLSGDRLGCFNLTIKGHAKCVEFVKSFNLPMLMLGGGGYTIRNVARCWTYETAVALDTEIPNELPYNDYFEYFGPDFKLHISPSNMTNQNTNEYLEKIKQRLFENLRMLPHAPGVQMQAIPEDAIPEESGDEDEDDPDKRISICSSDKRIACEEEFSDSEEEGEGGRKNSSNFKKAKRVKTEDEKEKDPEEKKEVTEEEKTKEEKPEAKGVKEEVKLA

`Cc1c(Cc2ccc(C(=O)NO)cc2)c2ccccc2n1CC1CCN(CC(C)(C)F)CC1` [Compound 528, 4-((1-((1-(2-fluoro-2-methylpropyl)piperidin-4-yl)methyl)-2-methyl-1H-indol-3-yl)methyl)-N-hydroxybenzamide]: the IC50 was determined as 0.074 µM on HDAC6 human recombinant and 8 µM on HDAC1. Also, the “compound concentration at which tubulin acetylation (HDAC6) appeared” value in data set [1] worked out at 100 nM. In data set [2], the “compound concentration at which histone acetylation (HDAC1) appeared” value is on record as “at least 3 uM”. Besides, in data set [3], the Kp is at least 0.5.

One may read the IC50 as the midpoint of a concentration-inhibition curve.
